One block for each compound: values may come before it.
Columns and labels:
[1] = test system: IL-8; assay: CypA-stimulated IL-8 transcription in THP1 cells, RT-PCR; type: cell-based; settings: CypA 12 hours, medium with 0.1% BSA
[2] = Glucose tolerance test (GTT); type: in vivo, mice
[3] = test system: CypA; assay: Serum CypA content in T2DM model mice, ELISA; type: in vivo; settings: DB diabetic mice, tail vein weekly for 3 weeks
Excerpt: This example examined the effect of drugs on serum CypA contents in mice using db/db genetically engineered mice deficient in leptin receptors (DB mice) as a T2DM model (C57 mice as a healthy control group).

[4] = test system: THP-1 cells; assay: Transwell CypA-induced THP-1 cell migration; type: cell-based; settings: 200 ng/ml CypA, 1 hour
[5] = target: albumin (BSA) (Bos taurus, UniProt P02769); assay: Albumin cysteine reaction site, bottom-up peptide LC-ESI-MS; settings: pancreatin digest, peptide GLVLIAFSQYLQQCPFDEHVK
albumin (BSA), sequence (P02769 25-607): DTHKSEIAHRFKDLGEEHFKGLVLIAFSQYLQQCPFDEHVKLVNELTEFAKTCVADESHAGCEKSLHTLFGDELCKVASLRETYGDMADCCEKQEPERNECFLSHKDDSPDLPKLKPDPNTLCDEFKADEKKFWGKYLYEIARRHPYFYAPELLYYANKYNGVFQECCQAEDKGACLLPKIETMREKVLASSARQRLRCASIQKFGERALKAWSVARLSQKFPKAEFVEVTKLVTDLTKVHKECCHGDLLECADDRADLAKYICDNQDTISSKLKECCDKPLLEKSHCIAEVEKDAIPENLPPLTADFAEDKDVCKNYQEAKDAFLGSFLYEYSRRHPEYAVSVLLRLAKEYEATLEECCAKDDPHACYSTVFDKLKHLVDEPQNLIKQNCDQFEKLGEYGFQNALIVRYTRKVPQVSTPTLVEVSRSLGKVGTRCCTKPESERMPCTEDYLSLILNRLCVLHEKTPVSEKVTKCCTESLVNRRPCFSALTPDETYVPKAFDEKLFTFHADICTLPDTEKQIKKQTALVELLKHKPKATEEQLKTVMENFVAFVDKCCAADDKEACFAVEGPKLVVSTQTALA
Description: The complex of Example 4 was denatured with urea, and the diluted protein sample was added in the proportion of pancreatin:protein=1:50. After enzymatic hydrolysis at 37° C. for 18 h, the peptide sample was desalted using Pierce® Spin Columns (Thermo Fisher) desalting column. The eluate was eluted with 70% acetonitrile, lyophilized, dissolved with 0.1% formic acid in water, and the peptide was analyzed by LC-ESI-MS, and the modified sites were analyzed using BioPharma Finder software (Thermo Fisher).

[6] = test system: CT26-LUC mouse colon cancer cells; assay: CT26-LUC mouse colon cancer tumor model; type: in vivo; settings: Balb/C mice, subcutaneous CT26-LUC, 5 mg/kg, three weeks
Description: This example establishes a mouse tumor model to reflect the effect of the drug by measuring the size of the tumor.
CT26-LUC mouse colon cancer cells were inoculated subcutaneously on the dorsal side of Balb/C mice in an amount of […]. Six days later, the tumor size was about 100 mm^3. The simultaneous administration was measured with vernier caliper and the administration dose of 4MCsA was 5 mg/kg. The tumors were measured once every two days and the tumor size was counted. The experiment was terminated after three weeks.

[7] = test system: Jurkat cells; assay: High resolution mass spectrometry determination of molecular penetration in Jurkat cells; type: in vitro ADME; settings: 5 μM compound, 37° C., 2 hours
Excerpt: For direct detection of molecular penetration, intracellular compound concentrations were quantified by an external standard method using a QE-Focus mass spectrometer.
The m/z signal of the corresponding molecule is selected to perform peak extraction on the chromatogram to obtain an ion chromatogram (EIC) corresponding to the extraction of the molecule, and then the concentration of the extract is quantified using the peak area under the curve of the EIC of the cell extract.

[8] = Fasting blood glucose and glycated hemoglobin in T2DM mouse models; type: in vivo, mice
Description: To effectively evaluate the effect of the drug on T2DM, this example selected DB mice and high fat diet-induced obese mouse models (HFD mice) as two different predisposing mouse models of type 2 diabetes as subjects.

[9] = test system: CD8T cells; assay: CD8 T cell infiltration in the tumor microenvironment, frozen section immunofluorescence; type: in vivo, mice; settings: tumor frozen sections
Description: The thickness of the frozen section is required to be 4-8 μm, place it at room temperature for 30 min after taking it out from −80° C., fix it in acetone at 4° C. for 10 min, wash with PBS, 5 min×3; block with 5-10% normal goat serum (diluted in PBS) and incubate at room temperature for 10 minutes. […] PBS flush, 5 min×3 times; add the appropriately diluted biotin-labeled secondary antibody (diluted in 1% BSA-PBS) dropwise, and incubate at 37° C. for 90-120 minutes; or second-generation horseradish enzyme-labeled streptavidin working solution, incubate at 37° C. or room temperature for 10-30 minutes; the PBS was washed 5 minutes×3 times, mounted and photographed using an inverted fluorescence microscope. Finally, ImageJ was used for statistical analysis.

[10] = Serum ALT, AST in high-fat diet-induced atherosclerotic mice; type: in vivo; settings: ApoE-/- mice, 5 mg/kg once a week, 9 weeks
Excerpt: Atherosclerosis model in mice was induced and administered as described in Example 25. At the end of the experimental period, the mice were euthanized and serum was taken for determination of ALT and AST contents.

[11] = target: T1, intracellular CypA (Homo sapiens, UniProt P62937); assay: Fluorescence competition flow cytometry with CsA-FITC probe in Jurkat cells; type: cell-based; settings: CsA-FITC labelled Jurkat cells
T1 construct: endogenous in cells; host or cells: Jurkat
T1 sequence (P62937 whole entry): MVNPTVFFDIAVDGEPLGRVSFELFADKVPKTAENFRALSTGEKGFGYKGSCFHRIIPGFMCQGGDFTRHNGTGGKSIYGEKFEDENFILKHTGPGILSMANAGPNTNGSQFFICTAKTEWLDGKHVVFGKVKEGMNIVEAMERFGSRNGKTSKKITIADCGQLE

[12] = test system: insulin; assay: Basal and glucose-stimulated insulin secretion, ELISA; type: in vivo, mice
[13] = Insulin tolerance test (ITT); type: in vivo, mice
Description: Insulin signaling response was further measured by performing an insulin sensitivity test (insulin tolerance test, ITT) on each of the two mice in Example 15. After the mice were fasted for 6 hours, insulin (2 U/kg for DB mice and 1 U/kg for HFD mice) was injected intraperitoneally, and then the blood glucose contents were measured at different time points.

[14] = target: T2, CypA (Homo sapiens, UniProt P62937); assay: PPIase activity, chymotrypsin hydrolysis of N-Succinyl-Ala-Ala-Pro-Phe p-nitroanilide; type: biochemical; settings: 50 nM CypA, 250 μg/mL chymotrypsin, 80 μM substrate peptide; read-out: IC50, CypA enzymatic activity
T2 sequence (P62937 whole entry, species assumed): as the sequence (P62937 whole entry) above
Description: The effect of inhibitors on CypA enzyme activity was determined using the chymotrypsin hydrolysis of N-Succinyl-Ala-Ala-Pro-Phe p-nitroanilide substrate peptide. […] When catalyzed by proline cis-trans isomerase, its configuration changes from cis to trans, which can be specifically cleaved by chymotrypsin and release p-nitroanilide with maximum absorption around 390 nm. Thus, the stronger the CypA enzyme activity is, the faster the substrate is degraded, and the faster the absorbance at 390 nm increases. Kinetic monitoring was initiated by the addition of 250 μg/mL chymotrypsin and finally, 80 μM of an ultra-dry substrate peptide solution (470 mM LiCL in trifluoroethanol) using a microplate reader with an autosampler after binding to different concentrations of inhibitors using 50 nM CypA.

[15] = target: T2, CypA; assay: Competitive fluorescence polarization binding assay
Excerpt: Fluorescence polarization (FP) is a widely used technique for measuring ligand-receptor binding in solution systems. Free fluorescent probes in the free state rotate rapidly in the system and the emitted fluorescence is mostly depolarized light. Once the probe binds to a larger molecule, the rotation of the molecule is restricted, and the emission of polarized light increases.

[16] = test system: TNF-a, IL-1β; assay: Serum inflammatory factors in DB mice, ELISA; type: in vivo; settings: 42 days of administration
[17] = Serum blood lipid markers in high-fat diet-induced atherosclerotic mice; type: in vivo; settings: ApoE-/- mice, 5 mg/kg once a week, 9 weeks
Description: A mouse model of atherosclerosis induced by a high-fat diet was established as described in Example 23 and administered in groups, 4MCsA at 5 mg/kg or placebo via tail vein once a week for 9 consecutive weeks, after which the mice were euthanized and serum was collected for routine lipid profile testing.

[18] = Hepatorenal toxicity evaluation, serum ALT, AST, creatinine, urea; settings: 50 days
[19] = test system: HEK293 human kidney cells; assay: MTT cytotoxicity; type: cell-based; settings: HEK293, medium with 4% BSA, 30 hours, up to 50 μM
[20] = test system: IL-2; assay: IL-2 secretion of activated Jurkat cells, ELISA; type: cell-based; settings: 4MCsA up to 5 μM, 24 h PMA and ionomycin stimulation
Description: Meanwhile, the present invention further examined the secretion of IL-2 protein downstream of T-cell activation in which NFAT was involved, and the IL-2 protein content in the culture medium was measured using the ELISA method after 24 h of PMA and ionomycin stimulation.

[21] = Aortic lesion extent in high-fat diet induced atherosclerotic mice, oil red O; type: in vivo, ApoE gene-deficient C57BL/6J mice; settings: ApoE-/- mice, Western diet, 5 mg/kg/week tail vein, 9 weeks
Description: Five-week-old ApoE gene-deficient C57BL/6J mice were randomly divided into two groups and fed with the Western diet for high-fat induction. From the 7th week, the experimental group received 4MCsA at a dose of 5 mg/kg/week via tail vein injection for 9 weeks. At the end of the experiment, the experimental animals were euthanized, dissected, and perfused with 10 mL of tissue fixative (4% paraformaldehyde) and 10 mL of […] from the right atrial appendage. The aorta was isolated intact under stereoscope and extravascular adherent adipose tissue was dissected with fat forceps. The isolated aorta was stained with oil red O, photographed, and recorded, and the lesion area of the aortic arch in the experimental group and the control group was counted with ImageJ, and the difference was statistically significant.

[22] = test system: CRP; assay: Serum CRP in high-fat diet-induced atherosclerotic mice; type: in vivo; settings: ApoE-/- mice, 5 mg/kg weekly, 9 weeks
Description: After successful modeling of atherosclerotic mice, the effect of the compounds on the development of cardiovascular disease was evaluated by assessing the risk of developing cardiovascular disease in the body by measuring CRP levels in the serum of experimental mice given weekly tail vein injections of 5 mg/kg 4MCsA for 9 weeks as described in Example 23.

[23] = test system: NFAT; assay: NFAT dephosphorylation in PMA/ionomycin activated Jurkat cells, Western blot; type: cell-based; settings: 1.5 h preincubation, 25 nM PMA and 1 μg/mL ionomycin 2 h
Excerpt: Based on this, the present inventors investigated the effect of molecules on NFAT signal transduction during JurkatT cell activation by ionomycin and PMA. […] After the collection of cells, the dephosphorylation level of NFAT protein was detected by extraction, electrophoresis, transfer printing, and NFAT antibody. Dephosphorylation of NFAT results in two bands, phosphorylated and nonphosphorylated.

[24] = HFD mice, within 36 hours on day 23 of dosing
[25] = HFD mice, within 60 hours on day 17 of dosing
[26] = DB and HFD mice, once weekly tail vein, compared to CsA

SMILES: CC=CCC(C)C(O)C1C(=O)NC(CC)C(=O)N(C)CC(=O)N(C)C(CCCCNC(=O)CCCCCN2C(=O)C=CC2=O)C(=O)NC(C(C)C)C(=O)N(C)C(CC(C)C)C(=O)NC(C)C(=O)NC(C)C(=O)N(C)C(CC(C)C)C(=O)N(C)C(CC(C)C)C(=O)N(C)C(C(C)C)C(=O)N1C (stereo not shown) [Compound 4MCsA]
eCypA-increased transcription level of mRNA of IL-8 [1]: significantly inhibited
GTT AUC ([2]; C57 healthy mice): less than that in CsA group
GTT area under the curve (AUC) ([2]; DB mice, 5 mg/kg group vs Ctrl): significantly reduced
glucose tolerance status (GTT) ([2]; DB mice, 5 mg/kg, after 5 weeks, glucose 1 g/kg i.p.): significantly improved
GTT [2, 24]: significant improvement
GTT AUC [2, 24]: significant decrease
GTT [2, 25]: remained significantly improved
GTT AUC [2, 25]: significantly reducing
blood CypA contents [3]: decreased
migration activity promoted by CypA [4]: significantly abolished
modification site on BSA [5]: Cys34
tumor size [6]: certain antitumor effect
Intracellular conc. (μM) [7]: not detected
fasting blood glucose [8, 26]: significantly decreased
glycated hemoglobin contents [8, 26]: decreased
fasting blood glucose vs C57 ctrl ([8]; normal C57 mice, 5 mg/kg/week, after 5 weeks): comparable to the normal group
infiltration of CD8T cells in the tumor microenvironment [9]: promote the infiltration
activity of ALT in the serum [10]: no significant change
activity of AST in the serum [10]: no significant change
effect on the intracellular fluorescence signal [11]: very little effect
basal level of insulin ([12]; DB mice): little effect
glucose-stimulated insulin secretion vs DB ctrl ([12]; DB mice): no significant difference
glucose-stimulated insulin secretion vs C57 ctrl ([12]; healthy C57 mice): increased
dose dependence of the effect on ITT ([13]; DB mice, 1 and 5 mg/kg/week): dose-dependent
insulin sensitivity (ITT) ([13]; DB mice, insulin 2 U/kg i.p.): significantly improved
ITT AUC compared with CsA ([13]; HFD mice): lower AUC
insulin resistance caused by obesity (ITT) ([13]; HFD mice, insulin 1 U/kg i.p.): attenuated insulin resistance
IC50 [14]: 0.0226 ± 0.0043 µM
Ki ([15]; 50 nM CypA, 20 nM CsA-FITC probe): 0.198 ± 0.017 µM
level of IL-1β [16]: significantly reduce
level of TNF-a [16]: significantly reduce
HDL-C content [17]: increased
TC content [17]: no significant effect
TC/HDL-C [17]: significantly reduce
TG content [17]: no significant effect
serum LDL-C content [17]: significantly decreased
ALT level ([18]; C57 healthy mice): remained close to those of healthy controls
AST level ([18]; C57 healthy mice): remained close to those of healthy controls
urea level ([18]; C57 healthy mice): remained close to those of healthy controls
creatinine level between groups ([18]; DB mice): no difference
hepatorenal toxicity (ALT, AST) ([18]; DB mice): not further enhanced
urea level between groups ([18]; DB mice): no difference
cytotoxicity, cell survival by MTT [19]: little cytotoxicity
secretion of IL-2 [20]: hardly affected
lesion area of the aortic arch vs control group [21]: significantly reduced
CRP content in the serum [22]: very significantly reduce
NFAT dephosphorylation induced by PMA and ionomycin [23]: no significant effect

proportion of fluorescent cells [11]: 95.30%
Kd ([15]; fluorescence polarization, probe itself, read-out: binding constant Kd with CypA): 0.0148 ± 0.0007 µM
SMILES: CCC1NC(=O)C(C(O)C(C)CC=Cc2ccc(C(=O)NCCOCCNC(=S)Nc3ccc(-c4c5ccc(=O)cc-5oc5cc(O)ccc45)c(C(=O)O)c3)cc2)N(C)C(=O)C(C(C)C)N(C)C(=O)C(CC(C)C)N(C)C(=O)C(CC(C)C)N(C)C(=O)C(C)NC(=O)C(C)NC(=O)C(CC(C)C)N(C)C(=O)C(C(C)C)NC(=O)C(CC(C)C)N(C)C(=O)CN(C)C1=O (stereo not shown) [CsA-FITC, reference compound]
